Laboratory results taken from patent US20060014740A1 (priority 2003, published 2006).
Where a name gives a salt, the structure may show the parent alone. Read-outs that look alike come from different tables or passages of the source.

How the values were obtained:
Type in all cases: cell-based
[1] = tested on: RH7777 rat hepatoma cells; test: SRB cytotoxicity assay, RH7777 control cell line; conditions: read-out: IC50 RH7777
Method: (§1) For in vitro cytotoxicity screening, 1000 to 5000 cells were plated into each well of 96-well plates depending on growth rate, and exposed to different concentrations of a test compound for 96 h in three to five replicates. All the compounds were dissolved in dimethyl sulfoxide at 5 to 20 mM, and diluted to desired concentrations in complete culture medium. Cell numbers at the end of the drug treatment were measured by the SRB assay (Gududuru et al., “Synthesis and Biological Evaluation of Novel Cytotoxic Phospholipids for Prostate Cancer,” Bioorg. Med. Chem. Lett. 14:4919-4923 (2004); Rubinstein et at., “Comparison of in vitro Anticancer-Drug-Screening Data Generated with a Tetrazolium Assay Versus a Protein Assay Against a Diverse Panel of Human Tumor Cell Lines,” J. Naatl, Cancer Inst. 82:1113-1118 (1990), each of which is hereby incorporated by reference in its entirety). Briefly, the cells were fixed with 10% of trichloroacetic acid, stained with 0.4% SRB, and the absorbances at 540 nm was measured using a plate reader (DYNEX Technologies, Chantilly, Va.).
(§2) The antiproliferative activity of all the synthesized compounds was evaluated against five human prostate cancer cell lines and in RH7777 cells (negative control) using the sulforhodamine B (SRB) assay (see description in Example 5 above).
(§3) The chosen cell lines represent different basal levels of active AKT and LPL receptor expression (discussed later). Cells were exposed to a wide range of concentrations (0 to 100 μM) of the indicated compound for 96 h. Cell numbers at the end of treatment were measured using the sulforhodamine B (SRB) assay^5.
(§4) Cells were exposed to a wide range of concentrations (0 to 100 μM) of the particular compound for 96 h in 96 well plates. Cells were fixed with 10% trichloroacetic acid, washed five times with water. The plates were air dried overnight and fixed cells were stained with SRB solution. The cellular protein-bound SRB was measured at 540 nm using a plate reader. Cell numbers at the end of the treatment were measured.
as §4, with “96-well” for “96 well”, “calculated as a percentage of untreated control.” for “measured.”

[2] = tested on: DU-145 human prostate cancer cells; test: SRB cytotoxicity assay, DU-145
Method: as §1, §2, §3, §4
as §4, with “96-well” for “96 well”, “calculated as a percentage of untreated control.” for “measured.”

[3] = tested on: PC-3 human prostate cancer cells; test: SRB cytotoxicity assay, PC-3; conditions: read-out: IC50 PC-3
Method: as §1, §2, §3, §4
as §4, with “96-well” for “96 well”, “calculated as a percentage of untreated control.” for “measured.”

[4] = tested on: LNCaP human prostate cancer cells; test: SRB cytotoxicity assay, LNCaP; conditions: read-out: IC50 LNCaP
Method: as §1, §2, §3, §4
as §4, with “96-well” for “96 well”, “calculated as a percentage of untreated control.” for “measured.”

[5] = tested on: PPC-1 human prostate cancer cells; test: SRB cytotoxicity assay, PPC-1; conditions: read-out: IC50 PPC-1
Method: (§5) Dr. Mitchell Steiner at University of Tennessee Health Science Center, kindly provided PPG-1 and TSU-PrI cells.
as §1, §2, §3, §4
as §4, with “96-well” for “96 well”, “calculated as a percentage of untreated control.” for “measured.”

[6] = tested on: TSU-Pr1 human prostate cancer cells; test: SRB cytotoxicity assay, TSU-Pr1
Method: as §5, §1, §2, §3, §4
as §4, with “96-well” for “96 well”, “calculated as a percentage of untreated control.” for “measured.”

[7] = tested on: human breast cancer cell line (MCF-7); test: SRB cytotoxicity assay, MCF-7; conditions: read-out: IC50 MCF-7
Method: as §1
In vitro cytotoxicity assay was performed by the same sulforhodamine B (SRB) assay (described above). The compounds shown in Table 8 below where tested for activity against the breast cancer and ovarian cancer cell lines.
as §3, §4

[8] = Rattus norvegicus, RH7777, Example 11 table, 96 h
[9] = Homo sapiens, DU-145, Example 11 table, 96 h, read-out: IC50 DU145
[10] = Homo sapiens, Example 11 table, 96 h
[11] = Homo sapiens, LNCaP, Example 11 table, 96 h
[12] = Homo sapiens, PPC-1, Example 11 table, 96 h
[13] = Homo sapiens, TSU-Pr1, Example 11 table, 96 h, read-out: IC50 TSU-Pr1
[14] = Homo sapiens, MCF7, Example 11 table, 96 h
[15] = Homo sapiens, MCF7, Table 8, breast cancer cell line
[16] = Homo sapiens, LNCaP, Example 10 table, 96 h
[17] = Rattus norvegicus, RH7777, Table 4, control cell line, 96 h
[18] = Homo sapiens, DU-145, read-out: IC50 DU-145, Table 4, 96 h
[19] = Homo sapiens, LNCaP, Table 4, 96 h
[20] = Homo sapiens, PPC-1, Table 4, 96 h
[21] = Homo sapiens, TSU-Pr1, Table 4, 96 h, read-out: IC50 TSU-Pr1

For `CCCCCCCCCCCCCCCCCCNC(=O)[C@@H]1CSC(c2cccc(O)c2)N1` (mixture of isomers) [Compound 14, (2RS, 4R)-2-(3-Hydroxy-phenyl)-thiazolidine-4-carboxylic add octadecylamide], the IC50 ([1]; Table 3, control cell line, 96 h) was 31 µM.
`CCCCCCCCCCCCCCCCCCNCCN1C(=O)CSC1c1ccccc1` (stereo not drawn) [Compound 79, 3-(2-(octadecylamino)ethyl)-2-phenylthiazolidin-4-one] was tested, and the IC50 ([1]; Rattus norvegicus, RH7777, Table 7, control cell line) was > 20 µM, the IC50 ([2]; Homo sapiens, DU-145, read-out: IC50 DU-145, Table 7) was 15.8 µM and the IC50 ([3]; Homo sapiens, Table 7) was > 20 µM. For the same compound, the IC50 ([4]; Homo sapiens, LNCaP, Table 7) was > 20 µM, the IC50 ([5]; Homo sapiens, PPC-1, Table 7) was 12 µM and the IC50 ([6]; Homo sapiens, TSU-Pr1, Table 7, read-out: IC50 TSU) was 6.1 µM.
With `CCCCCCCCCCCCCCCCCCNC(=O)[C@@H]1CSC(c2ccc(C#N)cc2)N1` (mixture of isomers) [Compound 22, (2RS, 4R)-2-(4-Cyano-phenyl)-thiazolidine-4-carboxylic acid octadccylamide] the IC50 ([1]; Table 4, control cell line, 96 h) was > 20 µM and the IC50 ([3]; Table 4, 96 h) was > 20 µM.
In the case of `CCCCCCCCCCCCCCCCCCNC[C@H](CO)NC` [drawing 51], the IC50 [1, 8] is reported as > 100 µM, the IC50 [2, 9] is reported as > 100 µM and the IC50 [3, 10] is reported as > 100 µM. For the same compound, the IC50 [4, 11] was > 100 µM, the IC50 [5, 12] was > 100 µM and the IC50 [6, 13] was > 100 µM. The IC50 [7, 14] was > 100 µM.
For `CCCCCCCCCCCCCCCCCCNC(=O)[C@@H]1CSC(c2ccc(OC)cc2)N1` (mixture of isomers) [Compound 15-HCI, (2RS, 4R)-2-(4-Methoxy-phenyl)-thiazolidine-4-carboxylic acid octadecylamide Hydrochloride], the IC50 ([1]; Rattus norvegicus, RH7777, Table 3, control cell line, 96 h) was > 20 µM, the IC50 ([2]; Homo sapiens, DU-145, read-out: IC50 DU-145, Table 3, 96 h) was 8.7 µM and the IC50 ([3]; Homo sapiens, Table 3, 96 h) was ~20 µM. The IC50 ([4]; Homo sapiens, LNCaP, Table 3, 96 h) was 2.1 µM, the IC50 ([5]; Homo sapiens, PPC-1, Table 3, 96 h) was 1.5 µM and the IC50 [7, 15] was 16.3 µM.
`CCCCCCCCCCCCCCCCCCCCNC[C@@H](N)CO` [S4] gave an IC50 ([1]; Rattus norvegicus, RH7777, Example 10 table, 0 to 100 μM for 96 h) of 2.9 µM, an IC50 ([2]; Homo sapiens, DU-145, read-out: IC50 DU-145, Example 10 table, 96 h) of 4.1 µM and an IC50 ([3]; Homo sapiens, Example 10 table, 96 h) of 2.6 µM. For the same compound, the IC50 [4, 16] was 5.1 µM, the IC50 ([5]; Homo sapiens, PPC-1, Example 10 table, 96 h) was 1.9 µM and the IC50 ([6]; Homo sapiens, TSU-Pr1, Example 10 table, 96 h, read-out: IC50 TSU-Pr1) was 2.2 µM. The IC50 ([7]; Homo sapiens, MCF7, Example 10 table, 96 h) was 4.6 µM.
`CCCCCCCCCCCCCCCCCCCCNCC(CO)NC` (stereo not drawn) [S3] showed an IC50 ([4]; Example 10 table, 96 h) of 3.3 µM and an IC50 ([7]; Example 10 table, 96 h) of 2.9 µM.
With `O=C(O)[C@@H]1CSC(c2cc(F)cc(F)c2)N1` (stereo partly drawn) the IC50 [1, 8] was > 100 µM, the IC50 [2, 9] was > 100 µM and the IC50 [3, 10] was > 100 µM. The IC50 [4, 11] was > 100 µM, the IC50 [5, 12] was > 100 µM and the IC50 [6, 13] was > 100 µM. For the same compound, the IC50 [7, 14] was > 100 µM.
For `CCCCCCCCCCCCCCCCCCNC(=O)[C@@H]1CSC(c2ccc(-c3ccccc3)cc2)N1` (mixture of isomers) [Compound 27-HCI, (2RS, 4R)-2-Biphenyl-4-yl-thiazolidine-4-carboxylic acid octadecylamide Hydrochloride], the IC50 [1, 17] was > 20 µM, the IC50 [2, 18] was > 20 µM and the IC50 ([3]; Homo sapiens, Table 4, 96 h) was > 20 µM. The IC50 [4, 19] was > 20 µM, the IC50 [5, 20] was > 20 µM and the IC50 [6, 21] was > 20 µM. For the same compound, the IC50 [7, 15] was > 20 µM.
`CCCCCCCCCCCCCCCCCCNC(=O)[C@@H]1CSC(c2c(Cl)cccc2Cl)N1` (mixture of isomers) [Compound 24, (2RS, 4R)-2-(2,6-Dichloro-phenyl)-thiazolidine-4-carboxylic acid octadecylamide] was tested, and the IC50 [1, 17] was > 20 µM, the IC50 [2, 18] was > 20 µM and the IC50 ([3]; Homo sapiens, Table 4, 96 h) was > 20 µM. The IC50 [4, 19] was 13.1 µM, the IC50 [5, 20] was 17.1 µM and the IC50 [6, 21] was ~20 µM. The IC50 [7, 15] was 17.7 µM.
For `COc1ccc(CCNC(=O)CN2C(=O)CSC2c2ccccc2)c(OC)c1` (stereo not drawn) [Compound 78], the IC50 ([1]; Table 6, control cell line) was > 100 µM, the IC50 ([2]; read-out: IC50 DU-145, Table 6) was > 100 µM and the IC50 ([3]; Table 6) was > 100 µM. For the same compound, the IC50 ([4]; Table 6) was > 100 µM, the IC50 ([5]; Table 6) was > 100 µM and the IC50 ([6]; Table 6, read-out: IC50 TSU-Pr1) was > 100 µM.
For `O=C(O)[C@@H]1CSC(c2ccc(-c3ccccc3)cc2)N1` (stereo partly drawn), the IC50 [1, 8] was > 100 µM, the IC50 [2, 9] was > 100 µM and the IC50 [3, 10] was > 100 µM. For the same compound, the IC50 [4, 11] was 71 µM, the IC50 [5, 12] was > 100 µM and the IC50 [6, 13] was ~100 µM. For the same compound, the IC50 [7, 14] was > 100 µM.
For `CCCCCCCCCCCCCCCCCCNC[C@@H](N)CO` [drawing 52], the IC50 [4, 11] was 3.3 µM and the IC50 [7, 14] was 2.9 µM.
With `CCCCCCCCCCCCCCCCCCNCC(CO)NC` (stereo not drawn) [compound 318] the IC50 ([4]; Table 9, 96 h) was 3.3 µM.
With `CCCCCCCCCCCCCCCCCCCNC(=O)[C@@H]1CSC(c2ccccc2)N1` (mixture of isomers) [Compound 6-HCI, (2RS, 4R)-2-Phenylthiazolidine-4-carboxylic acid nonadecylamide Hydrochloride] the IC50 ([2]; read-out: IC50 DU-145, Table 3, 96 h) was > 20 µM, the IC50 ([4]; Table 3, 96 h) was 13.6 µM and the IC50 ([5]; Table 3, 96 h) was 16.8 µM. For the same compound, the IC50 ([6]; Table 3, 96 h, read-out: IC50 TSU-Pr1) was > 20 µM and the IC50 ([7]; Table 8, breast cancer cell line) was > 20 µM.
`O=c1[nH]cc(F)c(=O)[nH]1` [5-FU, 5-fluorouracil, reference compound] was tested, and the IC50 [4, 16] was 4.9 µM and the IC50 ([4]; Homo sapiens, LNCaP, Table 6) was 4.9 µM.
